Assay: Solubility of compatibilizing monomer in water at 25° C.
Type: physicochemical

| Compound | solubility [µg/mL] |
| --- | --- |
| C=C(C)C(=O)OCC(O)COC(=O)C12CC3CC(CC(C3)C1)C2 (stereo not shown) [AdaCO(OH)MA] | < 10000 |
| C=C(C)C(=O)OCC(O)CC(F)(F)C(F)(F)C(F)(F)C(F)(F)F (stereo not shown) [C4F9CH2CH(OH)CHMA] | < 10000 |
| C=C(C)C(=O)OCC(O)COC(C)C (stereo not shown) [iPr(OH)MA] | < 10000 |
| C=C(C)C(=O)OCC(O)COC(=O)C(C)(C)C (stereo not shown) [tBuCO(OH)MA] | < 10000 |

Next, values leading:

| solubility [µg/mL] | Compound |
| --- | --- |
| < 10000 | C=C(C)C(=O)OCC(O)COC(=O)C1CCCCC1 (stereo not shown) [CyCO(OH)MA] |
| < 10000 | C=C(C)C(=O)OC12CC3CC(O)(CC(O)(C3)C1)C2 [DHADM] |
| < 10000 | C=C(C)C(=O)OCC(O)COCC(CC)CCCC (stereo not shown) [EH(OH)MA] |
| < 10000 | C=CC(=O)OC12CC3CC(CC(O)(C3)C1)C2 [HADA] |
| < 10000 | C=C(C)C(=O)OCC(O)COC(=O)C(O)CCCCCC (stereo not shown) [MA(OH)OCO(OH)Hp] |
| < 10000 | C=C(C)C(=O)OCC(O)COC(C)(C)C (stereo not shown) [tBu(OH)MA] |
